Laboratory results published in ChEMBL document CHEMBL3885881, “DrugMatrix”.

Organism: Rattus norvegicus
Assay: DrugMatrix - Regimen: Daily Repeat
Assay type: toxicity, organism-based, Sprague-Dawley
Set-up: regimen Daily Repeat, gender Male, age 6-8 weeks
Settings: in vivo, po, route oral GAVAGE, vehicle 100 % WATER; for ABSOLUTE BASOPHIL / ABSOLUTE EOSINOPHIL / ABSOLUTE LYMPHOCYTE / ABSOLUTE MONOCYTE / ABSOLUTE SEGMENTED NEUTROPHIL / BASOPHIL / EOSINOPHIL / ERYTHROCYTE COUNT / HEMATOCRIT / HEMOGLOBIN / LEUKOCYTE COUNT / LYMPHOCYTE / MEAN CORPUSCULAR HEMOGLOBIN / MEAN CORPUSCULAR HEMOGLOBIN CONCENTRATION / MEAN CORPUSCULAR VOLUME / MONOCYTE / NEUTROPHIL / NUCLEATED RED BLOOD CELLS / PLATELET COUNT: tissue Blood; for ALANINE AMINOTRANSFERASE / ALBUMIN / ALKALINE PHOSPHATASE / ASPARTATE AMINOTRANSFERASE / BLOOD UREA NITROGEN / CARBON DIOXIDE / CHLORIDE / CHOLESTEROL / CREATINE PHOSPHOKINASE / CREATININE / GLUCOSE / LACTATE DEHYDROGENASE / LIPASE / PHOSPHORUS / POTASSIUM / SODIUM / TOTAL BILIRUBIN / TOTAL PROTEIN / URIC ACID: tissue Plasma
[1] = 28 mg/kg, 120 h, dose level Low, time 5 day
[2] = 1500 mg/kg, 72 h, dose level High, time 3 day
[3] = 1500 mg/kg, 120 h, dose level High, time 5 day

In the case of `CS(=O)(=O)c1ccc([C@@H](O)[C@@H](CO)NC(=O)C(Cl)Cl)cc1` [THIAMPHENICOL], the “ABSOLUTE BASOPHIL” value [1] is reported as 0 CELLS/uL, the “ABSOLUTE EOSINOPHIL” value [1] is reported as 95.33 CELLS/uL and the “ABSOLUTE LYMPHOCYTE” value [1] is reported as 6576.67 CELLS/uL. The “ABSOLUTE MONOCYTE” value [1] was 0 CELLS/uL, the “ABSOLUTE SEGMENTED NEUTROPHIL” value [1] was 828 CELLS/uL and the BASOPHIL [1] was 0%. The EOSINOPHIL [1] was 1.33%, the “ERYTHROCYTE COUNT” value [1] was 5.62 x10E6/uL and the HEMATOCRIT [1] was 36.03%. The HEMOGLOBIN [1] was 13.5 G/DL, the “LEUKOCYTE COUNT” value [1] was 7.5 x10E3/uL and the LYMPHOCYTE [1] was 87.67%. For the same compound, the “MEAN CORPUSCULAR HEMOGLOBIN” value [1] was 24.03 pg, the “MEAN CORPUSCULAR HEMOGLOBIN CONCENTRATION” value [1] was 37.47 G/DL and the “MEAN CORPUSCULAR VOLUME” value [1] was 64.07 fL. For the same compound, the MONOCYTE [1] was 0%, the NEUTROPHIL [1] was 11% and the “NUCLEATED RED BLOOD CELLS” value [1] was 0 /100WBC. The “PLATELET COUNT” value [1] was 1264 x10E3/uL, the “ALANINE AMINOTRANSFERASE” value [1] was 51 u/L and the ALBUMIN [1] was 4.33 G/DL. The “ALKALINE PHOSPHATASE” value [1] was 379.67 u/L, the “ASPARTATE AMINOTRANSFERASE” value [1] was 78 u/L and the “BLOOD UREA NITROGEN” value [1] was 15 mg/dL. For the same compound, the “CARBON DIOXIDE” value [1] was 28 mmol/L, the CHLORIDE [1] was 101 MEQ/L and the CHOLESTEROL [1] was 82.67 mg/dL. The “CREATINE PHOSPHOKINASE” value [1] was 219 u/L, the CREATININE [1] was 0.19 mg/dL and the GLUCOSE [1] was 146.67 mg/dL. The “LACTATE DEHYDROGENASE” value [1] was 121 u/L, the LIPASE [1] was 8.33 u/L and the PHOSPHORUS [1] was 12.2 mg/dL. For the same compound, the POTASSIUM [1] was 5.86 MEQ/L, the SODIUM [1] was 148.13 MEQ/L and the “TOTAL BILIRUBIN” value [1] was 0.23 mg/dL. The “TOTAL PROTEIN” value [1] was 6.37 G/DL, the “URIC ACID” value [1] was 1.07 mg/dL and the “ABSOLUTE BASOPHIL” value [2] was 0 CELLS/uL. The “ABSOLUTE EOSINOPHIL” value [2] was 242.33 CELLS/uL, the “ABSOLUTE LYMPHOCYTE” value [2] was 11370.67 CELLS/uL and the “ABSOLUTE MONOCYTE” value [2] was 0 CELLS/uL. For the same compound, the “ABSOLUTE SEGMENTED NEUTROPHIL” value [2] was 1353.67 CELLS/uL, the BASOPHIL [2] was 0% and the EOSINOPHIL [2] was 1.67%. The “ERYTHROCYTE COUNT” value [2] was 4.88 x10E6/uL, the HEMATOCRIT [2] was 32.03% and the HEMOGLOBIN [2] was 12.37 G/DL. The “LEUKOCYTE COUNT” value [2] was 12.97 x10E3/uL, the LYMPHOCYTE [2] was 87.67% and the “MEAN CORPUSCULAR HEMOGLOBIN” value [2] was 25.37 pg. For the same compound, the “MEAN CORPUSCULAR HEMOGLOBIN CONCENTRATION” value [2] was 38.6 G/DL, the “MEAN CORPUSCULAR VOLUME” value [2] was 65.7 fL and the MONOCYTE [2] was 0%. For the same compound, the NEUTROPHIL [2] was 10.67%, the “NUCLEATED RED BLOOD CELLS” value [2] was 0 /100WBC and the “PLATELET COUNT” value [2] was 1202.33 x10E3/uL. For the same compound, the “ALANINE AMINOTRANSFERASE” value [2] was 42.67 u/L, the ALBUMIN [2] was 4.27 G/DL and the “ALKALINE PHOSPHATASE” value [2] was 298 u/L. For the same compound, the “ASPARTATE AMINOTRANSFERASE” value [2] was 82 u/L, the “BLOOD UREA NITROGEN” value [2] was 18 mg/dL and the “CARBON DIOXIDE” value [2] was 24.33 mmol/L. The CHLORIDE [2] was 110.67 MEQ/L, the CHOLESTEROL [2] was 82.67 mg/dL and the “CREATINE PHOSPHOKINASE” value [2] was 343.67 u/L. The CREATININE [2] was 0.16 mg/dL, the GLUCOSE [2] was 201 mg/dL and the “LACTATE DEHYDROGENASE” value [2] was 99 u/L. It also gave an LIPASE [2] of 8.33 u/L, a PHOSPHORUS [2] of 12 mg/dL and a POTASSIUM [2] of 5.55 MEQ/L. For the same compound, the SODIUM [2] was 148.1 MEQ/L, the “TOTAL BILIRUBIN” value [2] was 0.1 mg/dL and the “TOTAL PROTEIN” value [2] was 5.8 G/DL. The “URIC ACID” value [2] was 2.17 mg/dL, the “ABSOLUTE BASOPHIL” value [3] was 0 CELLS/uL and the “ABSOLUTE EOSINOPHIL” value [3] was 0 CELLS/uL. The “ABSOLUTE LYMPHOCYTE” value [3] was 10293 CELLS/uL, the “ABSOLUTE MONOCYTE” value [3] was 39 CELLS/uL and the “ABSOLUTE SEGMENTED NEUTROPHIL” value [3] was 901.33 CELLS/uL. For the same compound, the BASOPHIL [3] was 0%, the EOSINOPHIL [3] was 0% and the “ERYTHROCYTE COUNT” value [3] was 5.44 x10E6/uL. For the same compound, the HEMATOCRIT [3] was 34.1%, the HEMOGLOBIN [3] was 13.07 G/DL and the “LEUKOCYTE COUNT” value [3] was 11.23 x10E3/uL. For the same compound, the LYMPHOCYTE [3] was 91.67%, the “MEAN CORPUSCULAR HEMOGLOBIN” value [3] was 24.03 pg and the “MEAN CORPUSCULAR HEMOGLOBIN CONCENTRATION” value [3] was 38.33 G/DL. For the same compound, the “MEAN CORPUSCULAR VOLUME” value [3] was 62.67 fL, the MONOCYTE [3] was 0.33% and the NEUTROPHIL [3] was 8%. The “NUCLEATED RED BLOOD CELLS” value [3] was 0 /100WBC, the “PLATELET COUNT” value [3] was 1190 x10E3/uL and the “ALANINE AMINOTRANSFERASE” value [3] was 44.33 u/L. The ALBUMIN [3] was 4.33 G/DL, the “ALKALINE PHOSPHATASE” value [3] was 313.67 u/L and the “ASPARTATE AMINOTRANSFERASE” value [3] was 87 u/L. The “BLOOD UREA NITROGEN” value [3] was 21.33 mg/dL, the “CARBON DIOXIDE” value [3] was 24.33 mmol/L and the CHLORIDE [3] was 103 MEQ/L. The CHOLESTEROL [3] was 75.67 mg/dL, the “CREATINE PHOSPHOKINASE” value [3] was 564.67 u/L and the CREATININE [3] was 0.21 mg/dL. The GLUCOSE [3] was 159 mg/dL, the “LACTATE DEHYDROGENASE” value [3] was 210 u/L and the LIPASE [3] was 8.33 u/L. For the same compound, the PHOSPHORUS [3] was 11.87 mg/dL, the POTASSIUM [3] was 6.38 MEQ/L and the SODIUM [3] was 144.57 MEQ/L. The “TOTAL BILIRUBIN” value [3] was 0.13 mg/dL, the “TOTAL PROTEIN” value [3] was 5.97 G/DL and the “URIC ACID” value [3] was 1.67 mg/dL.
